The numbers were not newly measured in patent US20260356826A1, “SALTS OF AMINO QUINAZOLINE DERIVATIVES” (CHIESI FARMACEUTICI S.P.A., priority 2023, published 2026), which cites them from elsewhere.

This data set concerns P2X3. The conditions noted are these: disclosed in WO2020239951 A1; cited from earlier work.

On to `COc1cc(-c2ccc(F)cn2)cc2c(N[C@H](C)c3noc(C)n3)ncnc12` [Compound A, (R)-6-(5-fluoropyridin-2-yl)-8-methoxy-N-(1-(5-methyl-1,2,4-oxadiazol-3-yl)ethyl)quinazolin-4-amine], for which the P2X3 inhibition result is “potent and selective P2X3 inhibitor”.
